# Results: patent US11992475B1, “Application of Z-ligustilide in resisting rotaviruses” (GUANGDONG MEDICAL UNIVERSITY, priority 2023, dated 2024)
# Assays:
# [1] = system: MA104 cells; test: Toxicity of Z-ligustilide to MA104 cells (MTT assay); format: cell-based; conditions: 48 h
# Experimental: According to the common drug concentration range of Z-ligustilide, the cytotoxicity pre-experiment is performed in the range of 1-100 μM in this experiment. The MA104 cells at the logarithmic phase are observed under a microscope, the cellular morphology is uniform and full with clear edges, and when the number reaches 80%, digestion, centrifugation and re-suspension are conducted. After further dilution, 10 μl of the suspension is taken on a blood cell counting plate to count and calculate the required cell volume. Then, the cells are laid in a 96-well plate, 100 μl of cell suspension is added in each well, and the cell density is 8×10^4 cells/mL. When the cells adhere to the wall to form a single layer, the drug group is administered, and the normal group is added with an equal volume of DMEM (without serum). After incubation for 48 h, the cytotoxicity of Z-ligustilide is detected by MTT reagent. 1/10 volume of MTT solution is added in each well and incubated in an incubator. After 4 h, the solution in the wells is sucked out, 150 μL of DMSO is added in each well, and the absorbance is measured and recorded at a wavelength of 490 nm under the condition of oscillation for 30 s.
# The formula of the relative survival rate of the cells is: {(Aexperimental group−Ablank)/(Acontrol group−Ablank)×100%}
# [2] = system: RV (Wa strain RV); test: Effect of Z-ligustilide in resisting RV adsorption (MTT, MA104 cells); format: cell-based, Rotavirus (RV); conditions: for inhibition rate against RV (resisting adsorption): drug 2 h before virus, 48 h
# Experimental: The drug solution is added in a 96-well culture plate of MA104 cells that grow to a single layer, and each drug solution is added in 6 wells at an amount of 100 μL/well. An equal volume of ribavirin is added to the positive control group, and only an equal volume of DMEM culture solution (without serum) is added to the normal cell control group and the viral control group. Incubation is conducted in 5% CO2 at 37° C. for 2 h. The drug solution is sucked out. Except the normal cell control group, 100TCID50 virus is added (the virus acts with 10 μg/mL pancreatin at 37° C. for 30 min) at an amount of 100 μL/well. Incubation is conducted in 5% CO2 at 37° C. for 2 h. The virus is sucked out, the cell maintenance medium is added at an amount of 200 μL/well. Incubation is conducted in 5% CO2 at 37° C. for continuous observation. After culture for 48 h, an MTT kit is used for detection. 1/10 volume of MTT solution is added in each well and incubated in an incubator. After 4 h, the supernatant is sucked out, DMSO is added, and the absorbance is measured and recorded at a wavelength of 490 nm. The experiment is repeated for 3 times.
# (§1) The formula of the viral inhibition rate is: {(Adrug group−Avirus group)/(Anormal group−Avirus group)×100%}
# [3] = system: RV (Wa strain RV); test: Effect of Z-ligustilide in directly killing RV (MTT, MA104 cells); format: cell-based, Rotavirus (RV); conditions: for inhibition rate against RV (directly killing): drug mixed with virus 2 h, 48 h
# Experimental: The drug is mixed with 100TCID50 virus solution (the virus acts with 10 μg/mL pancreatin for 30 min) at an equal volume to act for 2 h. After the cells are washed twice with PBS, the cells are added in a 96-well culture plate of MA104 cells that grow to a single layer. The same operation as above is conducted for ribavirin and RV in the positive control group, and only an equal volume of DMEM is added to the normal cell control group and the viral control group. Incubation is conducted in 5% CO2 at 37° C. for 2 h, the mixed solution is sucked out, and the cell maintenance medium is added at an amount of 100 μL/well. Incubation is conducted in 5% CO2 at 37° C. for continuous observation. After continuous culture for 48 h, an MTT kit is used for detection. 1/10 volume of MTT solution is added in each well and incubated in an incubator. After 4 h, the supernatant is sucked out, DMSO is added, and the absorbance is measured and recorded at a wavelength of 490 nm. The experiment is repeated for 3 times. The viral inhibition rate of the drug is calculated. The formula of the viral inhibition rate is: {(Adrug group−Avirus group)/(Anormal group−Avirus group)×100%}
# [4] = system: RV (Wa strain RV); test: Effect of Z-ligustilide in resisting RV synthesis (MTT, MA104 cells); format: cell-based, Rotavirus (RV); conditions: for inhibition rate against RV (resisting biosynthesis): drug after virus, 48 h
# Experimental: as §1
# 100TCID50 virus solution (the virus acts with 10 μg/mL pancreatin for 30 min) is added in a 96-well culture plate of MA104-2 cells that grow to a single layer, at an amount of 100 μL/well. The cells have been washed twice with PBS. A normal cell control group is set, and added with an equal volume of DMEM culture solution. Incubation is conducted in 5% CO2 at 37° C. for 2 h, the virus solution is sucked out, and drug solution and ribavirin of different concentrations are added respectively at an amount of 100 μL/well. A viral control group is set, and only added with the cell maintenance medium at an amount of 100 μL/well. Incubation is conducted in 5% CO2 at 37° C. for continuous observation. After continuous culture for 48 h, an MTT kit is used for detection. 1/10 volume of MTT solution is added in each well and incubated in an incubator. After 4 h, the supernatant is sucked out, DMSO is added, and the absorbance is measured and recorded at a wavelength of 490 nm. The experiment is repeated for 3 times. The viral inhibition rate of the drug is calculated.
# [5] = system: structural protein VP6 of RV; test: Gene expression level of structural protein VP6 of RV in RV-infected MA104 cells (real time PCR); format: cell-based, Rotavirus (RV), Wa strain; conditions: for VP6 expression level compared with the RV group: 48 h, GAPDH internal reference
# Experimental: (1) To further verify whether Z-ligustilide has an effect of inhibiting RV synthesis, after Z-ligustilide inhibits RV synthesis for 48 h, drug groups of low, medium and high concentrations, the ribavirin group, the N group and the RV group are selected, the supernatant is removed, the solution is washed twice with PBS, 1 ml of Trizol reagent is added, and then the solution is collected into a 1.5 mL enzyme-free EP tube after standing for 5 min. 200 μL of chloroform is added in the tube. After vortex oscillation for 15 s, the solution is stood at room temperature for 3 min, and centrifuged (4° C., 12000 r/min, 15 min). The centrifuged sample is divided into three layers: a colorless upper layer, a white middle layer and a red lower layer.
# (2) The supernatant is carefully sucked into a new 1.5 mL enzyme-free EP tube (with a volume of about 500 μL), and an equal volume of pre-cooled isopropanol is added. The solution is shaken up and down violently, mixed well, stood at 4° C. for 10 min, and centrifuged (4° C., 12000 r/min, 10 min).
# (3) After centrifugation, white precipitate can be seen at the bottom of the EP tube. The supernatant is removed, and the precipitate is retained. 1 mL of the prepared 75% ethanol solution (prepared from anhydrous ethanol and enzyme-free water at a ratio of 3:1) is added, shaken and mixed well, and centrifuged (4° C., 12000 r/min, 5 min). The supernatant is discarded, and the solution is stood at room temperature for 15-20 min for drying.
# (4) After drying, 20 μL of DEPC water is added in the EP tube, and the tube wall is gently blown to dissolve RNA. The RNA concentration of the sample is determined by a NanoDrop micro ultraviolet spectrophotometer, and then the sample can be used directly for the experiment or stored at −80° C. for later use.
# A reaction mixture is prepared on ice according to the following components in a reaction volume of 20 μL in accordance with the instructions of Evo M-MLV RT Kit with gDNA Clean for qPCR II. The consumables used in the experiment are all Axygen enzyme-free consumables.
# Reaction conditions: 42° C. 2 min, 4° C.
# The reaction solution is prepared according to the following table, and the reverse transcription reaction is performed.
# Reaction conditions: 37° C. 15 min, 85° C. 5 sec, 4° C.
# Real time quantitative PCR is used to detect the control group and the RVWa strain-infected group by SYBR Green I fluorescent labeling. SYBR® Green Premix Pro Taq HS qPCR Kit II is used, and GAPDH is selected as the internal reference. In the experiment, dedicated real-time eight-row PCR tubes for Axygen are used for preparing a real-time fluorescence quantitative PCR amplification reaction system according to the following table, and the reaction solution is prepared on ice (the total reaction system is 10 μL).
# [6] = 1st of six values printed for 65-90 μM
# [7] = 2nd of six values printed for 65-90 μM
# [8] = 3rd of six values printed for 65-90 μM
# [9] = 4th of six values printed for 65-90 μM
# [10] = 5th of six values printed for 65-90 μM
# [11] = 6th of six values printed for 65-90 μM
compound,measurement,setting,value
CCC/C=C1\OC(=O)C2=C1CCC=C2 [Z-ligustilide],drug toxicity to the cells,[1]; 60-95 μM,no drug toxicity
same,cell viability versus the normal group,[1]; 65-90 μM,no significant difference
same,average survival rate,[1]; drug concentration 60-95 μM,more than 95%
same,inhibition rate against RV (resisting adsorption),[2]; [6],4.85%
same,inhibition rate against RV (resisting adsorption),[2]; [7],4.55%
same,inhibition rate against RV (resisting adsorption),[2]; [8],1.14%
same,inhibition rate against RV (resisting adsorption),[2]; [9],3.95%
same,inhibition rate against RV (resisting adsorption),[2]; [10],3.01%
same,inhibition rate against RV (resisting adsorption),[2]; [11],4.69%
same,effect of resisting RV adsorption,[2]; 65-90 μM,no obvious effect
same,maximum inhibition rate (resisting adsorption),[2]; within 65-90 μM,about 4.85%
same,inhibition rate against RV (directly killing),[3]; [6],2.32%
same,inhibition rate against RV (directly killing),[3]; [7],3.25%
same,inhibition rate against RV (directly killing),[3]; [8],0.93%
same,inhibition rate against RV (directly killing),[3]; [9],0.4%
same,inhibition rate against RV (directly killing),[3]; [10],6.45%
same,inhibition rate against RV (directly killing),[3]; [11],5.89%
same,effect of directly killing RV,[3]; 65-90 μM,no obvious effect
same,effect of inhibiting RV biosynthesis,[4],has an effect of inhibiting RV biosynthesis
same,inhibition rate against RV (resisting biosynthesis),"[4]; 80 µM, without statistical difference from the ribavirin group",64.21%
same,inhibition of rotavirus biosynthesis,[4]; 70-85 μM,can effectively inhibit rotavirus biosynthesis
same,inhibition rate against RV (resisting biosynthesis),[4]; 70-85 μM,more than 50%
same,VP6 expression level compared with the RV group,[5]; 75 μM,significantly decreased
same,VP6 expression level compared with the RV group,[5]; 80 μM,significantly decreased
same,VP6 expression level compared with the RV group,[5]; 85 μM,significantly decreased
same,concentration at which VP6 expression is inhibited most significantly,"[5]; among 75 μM, 80 μM and 85 μM",75 µM
